Measurements taken from the CheMixHub viscosity set.

Experiment: xn = mol fraction of the nth substance listed

CC(C)(C)O + CC(=O)N(C)C
303.15 K, 101 kPa
Conditions | viscosity [mPa·s]
x2 = 0.1094 | 2.544
x2 = 0.2069 | 2.032
x2 = 0.3062 | 1.651
x2 = 0.4037 | 1.422
x2 = 0.5026 | 1.255
x2 = 0.6154 | 1.128
x2 = 0.7028 | 1.046
x2 = 0.8064 | 0.973
x2 = 0.8954 | 0.924

Nc1ccccc1 + CC(=O)O
viscosity [mPa·s]
Conditions | 298.15 K | 308.15 K | 323.15 K
101.3 kPa, x1 = 0.0382 | 2.15 | 1.72 | 1.27
101.3 kPa, x1 = 0.0652 | 3.65 | 2.72 | 1.83
101.3 kPa, x1 = 0.0972 | 5.78 | 4.07 | 2.51
101.3 kPa, x1 = 0.132 | 8.79 | 5.69 | 3.26
101.3 kPa, x1 = 0.186 | 14.2 | 8.51 | 4.27
101.3 kPa, x1 = 0.229 | 18.5 | 10.5 | 5.14
101.3 kPa, x1 = 0.257 | 20.3 | 11.4 | 5.4
101.3 kPa, x1 = 0.286 | 20.8 | 11.6 | 5.52
101.3 kPa, x1 = 0.3 | 21.2 | 11.8 | 5.58
101.3 kPa, x1 = 0.333 | 20.5 | 11.6 | 5.43
101.3 kPa, x1 = 0.35 | 20.1 | 11.1 | 5.33
101.3 kPa, x1 = 0.377 | 19 | 10.7 | 5.16
101.3 kPa, x1 = 0.425 | 15.9 | 9.01 | 4.61
101.3 kPa, x1 = 0.497 | 13.5 | 7.7 | 4.03
101.3 kPa, x1 = 0.546 | 10.7 | 6.51 | 3.6
101.3 kPa, x1 = 0.675 | 6.68 | 4.48 | –
101.3 kPa, x1 = 0.799 | 5.08 | 3.61 | 2.39
101.3 kPa, x1 = 0.86 | 4.57 | 3.3 | 2.25
101.33 kPa, x1 = 0.1058 | 7.29 | – | 2.96
101.33 kPa, x1 = 0.1746 | 12.3 | – | –
101.33 kPa, x1 = 0.2824 | 21.9 | – | 5.65
101.33 kPa, x1 = 0.3086 | 21.4 | – | 5.58
101.33 kPa, x1 = 0.3408 | 20.3 | – | 5.23
101.33 kPa, x1 = 0.3878 | 18.1 | – | –
101.33 kPa, x1 = 0.5159 | 11.8 | – | 3.82

Nc1ccccc1 + CC(C)(C)O
303 K, 101.33 kPa
Conditions | viscosity [mPa·s]
x1 = 0.1 | 2.851
x1 = 0.2 | 2.363
x1 = 0.3 | 2.307
x1 = 0.4 | 2.218
x1 = 0.5 | 2.257
x1 = 0.6 | 2.305
x1 = 0.7 | 2.407
x1 = 0.8 | 2.524
x1 = 0.9 | 2.766

CC(C)(C)O + CC(C)=O
viscosity [mPa·s], 101 kPa
Conditions | x1 = 0.0784 | x1 = 0.1618 | x1 = 0.2497 | x1 = 0.3433 | x1 = 0.4398 | x1 = 0.5382 | x1 = 0.6472 | x1 = 0.7532 | x1 = 0.8729
298.15 K | 0.3321 | 0.3734 | 0.4146 | 0.4676 | 0.5414 | 0.6566 | 0.8929 | 1.304 | 2.131
303.15 K | 0.324 | 0.3649 | 0.4058 | 0.4555 | 0.514 | 0.6108 | 0.8102 | 1.186 | 1.881
308.15 K | 0.3158 | 0.3535 | 0.3941 | 0.4405 | 0.4928 | 0.583 | 0.7695 | 1.073 | 1.632

Nc1ccccc1 + CC(C)=O
298.15 K, 101 kPa
Conditions | viscosity [mPa·s]
x1 = 0.0833 | 0.3644
x1 = 0.1692 | 0.4238
x1 = 0.2591 | 0.5074
x1 = 0.3523 | 0.6194
x1 = 0.4492 | 0.7717
x1 = 0.5502 | 0.9752
x1 = 0.6556 | 1.252
x1 = 0.7653 | 1.679
x1 = 0.8805 | 2.259

CCC(O)CO (configuration not stated) + CC(C)CO
viscosity [mPa·s], 100 kPa
Conditions | x2 = 0.1 | x2 = 0.201 | x2 = 0.3 | x2 = 0.4 | x2 = 0.5 | x2 = 0.6 | x2 = 0.698 | x2 = 0.8 | x2 = 0.899
298.15 K | 37.85 | 28.47 | 21.1 | 15.45 | 10.88 | 7.762 | 6.307 | 5.182 | 3.998
303.15 K | 28.29 | 21.56 | 16.11 | 12.08 | 8.609 | 6.351 | 5.187 | 4.312 | 3.375
308.15 K | 21.44 | 16.65 | 12.67 | 9.596 | 7.019 | 5.289 | 4.334 | 3.62 | 2.873
313.15 K | 16.62 | 13.03 | 10.31 | 7.809 | 5.758 | 4.449 | 3.635 | 3.062 | 2.473
318.15 K | 13.08 | 10.42 | 8.093 | 6.339 | 4.851 | 3.692 | 3.08 | 2.621 | 2.141
323.15 K | 10.47 | 8.442 | 6.689 | 5.231 | 3.969 | 3.154 | 2.639 | 2.253 | 1.855

Nc1ccccc1 + CC(C)CO
303 K, 101.33 kPa
Conditions | viscosity [mPa·s]
x1 = 0.1 | 2.305
x1 = 0.2 | 2.138
x1 = 0.3 | 2.096
x1 = 0.4 | 2.047
x1 = 0.5 | 2.073
x1 = 0.6 | 2.172
x1 = 0.7 | 2.284
x1 = 0.8 | 2.366
x1 = 0.9 | 2.715
